According to US11377442B2, “Small molecule agonists and antagonists of NR2F6 activity” (ZANDER THERAPEUTICS, INC., priority 2016, dated 2022):
Read-outs that look alike come from different tables or passages of the source.

Tests used:
Format in all cases: cell-based
NR2F6 = biological target: T1, NR2F6 (Homo sapiens, UniProt P10588); test: NR2F6 agonist screening, Firefly signal cmpd/DMSO
T1 construct: expressed in transfected cells; also transient transfection
T1 sequence (P10588 1-404): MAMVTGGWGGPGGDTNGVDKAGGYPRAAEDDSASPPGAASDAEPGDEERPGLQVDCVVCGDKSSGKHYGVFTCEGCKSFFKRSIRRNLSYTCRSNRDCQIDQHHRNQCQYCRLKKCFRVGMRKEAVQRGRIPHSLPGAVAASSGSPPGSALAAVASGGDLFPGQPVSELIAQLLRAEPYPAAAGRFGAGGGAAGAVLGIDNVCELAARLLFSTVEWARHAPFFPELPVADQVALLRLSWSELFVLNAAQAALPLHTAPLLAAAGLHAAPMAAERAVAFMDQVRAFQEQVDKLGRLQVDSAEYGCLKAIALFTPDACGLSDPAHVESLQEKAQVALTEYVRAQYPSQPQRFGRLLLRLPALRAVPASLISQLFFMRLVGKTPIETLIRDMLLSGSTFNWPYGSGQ

ERα [1] = biological target: T2, ERα (Homo sapiens, UniProt P03372); test: Counterscreening, Firefly signal with ERα transient transfection (Firefly_ERa); conditions: 10 uM
T2 construct: expressed in transfected cells
T2 sequence (P03372 1-595): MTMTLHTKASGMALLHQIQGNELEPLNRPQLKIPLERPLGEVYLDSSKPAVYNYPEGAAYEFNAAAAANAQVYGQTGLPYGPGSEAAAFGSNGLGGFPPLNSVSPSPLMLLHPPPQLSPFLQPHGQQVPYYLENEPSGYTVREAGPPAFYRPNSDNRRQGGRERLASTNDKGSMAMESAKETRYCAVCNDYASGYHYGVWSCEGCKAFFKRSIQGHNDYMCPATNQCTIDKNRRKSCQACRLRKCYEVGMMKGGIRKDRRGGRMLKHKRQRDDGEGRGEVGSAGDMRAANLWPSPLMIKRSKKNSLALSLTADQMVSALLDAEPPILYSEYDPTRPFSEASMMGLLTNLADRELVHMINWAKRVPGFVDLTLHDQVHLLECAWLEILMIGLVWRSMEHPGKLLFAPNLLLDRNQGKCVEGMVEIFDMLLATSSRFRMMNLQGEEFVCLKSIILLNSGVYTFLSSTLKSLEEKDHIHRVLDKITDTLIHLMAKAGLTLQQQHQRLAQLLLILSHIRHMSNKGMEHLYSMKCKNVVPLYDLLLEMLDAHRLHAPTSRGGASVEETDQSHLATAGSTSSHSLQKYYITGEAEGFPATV
Method: The methodology for screening candidate compounds as NR2F6 agonists was as follows: For primary screening, hit criteria was ACT %>DMSO control+5*SD (DSO control) at 10 μM, or any compound with S/B>2. For rescreening, hit criteria was ACT %>DMSO control+3*SD (DSO control) in each replicate at 10 μM. For counterscreening, hit criteria was mean ACT<DMSO control+3*SD (DMSO control) with ERα transient transfection in duplicate at 10 μM.

Renilla = Renilla signal in NR2F6 agonist screening, cmpd/DMSO; conditions: for fold induction at 2 µM / fold induction at 10 µM / fold induction at 40 µM: Renilla, read-out: Renilla F4, cmpd/DMSO (mean)
Renilla_ERa = test: Renilla signal in ERα counterscreen (Renilla_ERa); conditions: for fold induction at 2 µM / fold induction at 10 µM / fold induction at 40 µM: read-out: Renilla ERalpha transient, cmpd/DMSO (mean)
ERα [2] = biological target: T2, ERα; test: Counterscreening, Firefly signal with ERα transient transfection (Firefly_ERa)

| SMILES | Firefly F4, cmpd/DMSO (mean) (NR2F6; 2 uM, clone F4) | Firefly F4, cmpd/DMSO (mean) (NR2F6; 10 uM, clone F4) | Firefly F4, cmpd/DMSO (mean) (NR2F6; 40 uM, clone F4) | Firefly ERalpha transient, cmpd/DMSO (mean) (ERα [1]) | Firefly ERalpha transient, cmpd/DMSO (mean) (ERα [2]; 2 uM) | Firefly ERalpha transient, cmpd/DMSO (mean) (ERα [2]; 40 uM) | fold induction at 2 µM (Renilla; 2 uM, clone F4) | fold induction at 10 µM (Renilla; 10 uM, clone F4) | fold induction at 40 µM (Renilla; 40 uM, clone F4) | fold induction at 2 µM (Renilla_ERa; 2 uM) | fold induction at 10 µM (Renilla_ERa; 10 uM) | fold induction at 40 µM (Renilla_ERa; 40 uM) | also measured |
| --- | --- | --- | --- | --- | --- | --- | --- | --- | --- | --- | --- | --- | --- |
| Cc1ccc(NC(=O)c2noc3c2CC(C)(C)CC3)cc1C [Compound Z1] | – | – | – | – | – | – | – | – | – | – | – | – | Firefly F4, cmpd/DMSO (mean) (NR2F6; Table 15, 2 uM): 1.9; Firefly F4, cmpd/DMSO (mean) (NR2F6; Table 15, 10 uM): 1.8; Firefly F4, cmpd/DMSO (mean) (NR2F6; Table 15, 40 uM): 0.8; Firefly ERalpha transient, cmpd/DMSO (mean) (ERα [1]; Table 15): 2.2; fold induction at 2 µM (Renilla; Table 15, 2 uM): 1.3; fold induction at 10 µM (Renilla; Table 15, 10 uM): 1.6; fold induction at 40 µM (Renilla; Table 15, 40 uM): 0.8; fold induction at 2 µM (Renilla_ERa; Table 15, 2 uM): 1.1; fold induction at 10 µM (Renilla_ERa; Table 15, 10 uM): 1; fold induction at 40 µM (Renilla_ERa; Table 15, 40 uM): 0.7; Firefly ERalpha transient, cmpd/DMSO (mean) (ERα [2]; Table 15, 2 uM): 2.4; Firefly ERalpha transient, cmpd/DMSO (mean) (ERα [2]; Table 15, 40 uM): 0.9 |
| Cc1cc(C)c2ncc(C(=O)OC(C)C)c(NCCCN(C)C)c2c1 [Compound Z29] | 1.3 | 1.1 | 1.1 | 1.2 | 1.0 | 6.7 | 0.8 | 0.9 | 0.5 | 0.8 | 1.2 | 0.7 | – |
| CCOC(=O)c1cnc2c(Cl)cc(Cl)cc2c1NCCCN1CCCCC1 [Compound Z37] | 1.0 | 1.4 | 0.7 | 1.5 | 1.1 | 1.2 | 1 | 0.9 | 0.5 | 1 | 1.7 | 0.7 | – |
| CCOC(=O)c1cnc2c(C)cc(C)cc2c1NCc1ccc(Cl)cc1 [Compound Z75] | – | – | – | – | – | – | – | – | – | – | – | – | Firefly F4, cmpd/DMSO (mean) (NR2F6; Table 15, 2 uM): 0.9; Firefly F4, cmpd/DMSO (mean) (NR2F6; Table 15, 10 uM): 1.2; Firefly F4, cmpd/DMSO (mean) (NR2F6; Table 15, 40 uM): 0.8; Firefly ERalpha transient, cmpd/DMSO (mean) (ERα [1]; Table 15): 1.9; fold induction at 2 µM (Renilla; Table 15, 2 uM): 1.1; fold induction at 10 µM (Renilla; Table 15, 10 uM): 1; fold induction at 40 µM (Renilla; Table 15, 40 uM): 0.8; fold induction at 2 µM (Renilla_ERa; Table 15, 2 uM): 1; fold induction at 10 µM (Renilla_ERa; Table 15, 10 uM): 0.9; fold induction at 40 µM (Renilla_ERa; Table 15, 40 uM): 0.7; Firefly ERalpha transient, cmpd/DMSO (mean) (ERα [2]; Table 15, 2 uM): 1.1; Firefly ERalpha transient, cmpd/DMSO (mean) (ERα [2]; Table 15, 40 uM): 0.9 |
| COc1nc(NCCC2=CCCCC2)nc(N2CC3CC(C2)c2cccc(=O)n2C3)n1 (stereo not drawn) [Compound 38] | 1.2 | 0.8 | 0.7 | 0.9 | 0.8 | 0.5 | 1.1 | 1.1 | 1.3 | 1.2 | 1.1 | 1.1 | – |
| COc1cccc(-c2noc(Cn3nccc(Cl)c3=O)n2)c1 [Compound Z3] | – | – | – | – | – | – | – | – | – | – | – | – | Firefly F4, cmpd/DMSO (mean) (NR2F6; Table 15, 2 uM): 1.5; Firefly F4, cmpd/DMSO (mean) (NR2F6; Table 15, 10 uM): 1.1; Firefly F4, cmpd/DMSO (mean) (NR2F6; Table 15, 40 uM): 1.6; Firefly ERalpha transient, cmpd/DMSO (mean) (ERα [1]; Table 15): 2.6; fold induction at 2 µM (Renilla; Table 15, 2 uM): 1.5; fold induction at 10 µM (Renilla; Table 15, 10 uM): 1.4; fold induction at 40 µM (Renilla; Table 15, 40 uM): 0.9; fold induction at 2 µM (Renilla_ERa; Table 15, 2 uM): 1.1; fold induction at 10 µM (Renilla_ERa; Table 15, 10 uM): 1; fold induction at 40 µM (Renilla_ERa; Table 15, 40 uM): 0.9; Firefly ERalpha transient, cmpd/DMSO (mean) (ERα [2]; Table 15, 2 uM): 2.2; Firefly ERalpha transient, cmpd/DMSO (mean) (ERα [2]; Table 15, 40 uM): 1.7 |
| CC1CCN(c2nc(N3CCC(C)CC3)nc(N3CCn4c(cccc4=O)C3)n2)CC1 [Compound 36] | 1.3 | 0.6 | 0.9 | 0.8 | 1.1 | 0.4 | – | – | – | – | – | – | Renilla F4, cmpd/DMSO (mean) (Renilla; 2 uM, clone F4): 1.2; Renilla F4, cmpd/DMSO (mean) (Renilla; 10 uM, clone F4): 0.8; Renilla F4, cmpd/DMSO (mean) (Renilla; 40 uM, clone F4): 0.5; Renilla ERalpha transient, cmpd/DMSO (mean) (Renilla_ERa; 2 uM): 1.2; Renilla ERalpha transient, cmpd/DMSO (mean) (Renilla_ERa; 10 uM): 1.1; Renilla ERalpha transient, cmpd/DMSO (mean) (Renilla_ERa; 40 uM): 0.3 |

Second part, led by results:

| Firefly F4, cmpd/DMSO (mean) (NR2F6; 2 uM, clone F4) | Firefly F4, cmpd/DMSO (mean) (NR2F6; 10 uM, clone F4) | Firefly F4, cmpd/DMSO (mean) (NR2F6; 40 uM, clone F4) | Firefly ERalpha transient, cmpd/DMSO (mean) (ERα [1]) | Firefly ERalpha transient, cmpd/DMSO (mean) (ERα [2]; 2 uM) | Firefly ERalpha transient, cmpd/DMSO (mean) (ERα [2]; 40 uM) | SMILES | fold induction at 2 µM (Renilla; 2 uM, clone F4) | fold induction at 10 µM (Renilla; 10 uM, clone F4) | fold induction at 40 µM (Renilla; 40 uM, clone F4) | fold induction at 2 µM (Renilla_ERa; 2 uM) | fold induction at 10 µM (Renilla_ERa; 10 uM) | fold induction at 40 µM (Renilla_ERa; 40 uM) | also measured |
| --- | --- | --- | --- | --- | --- | --- | --- | --- | --- | --- | --- | --- | --- |
| 1.5 | 1.6 | 1.8 | 1.5 | 1.1 | 1.3 | Cc1cc(-c2ccccc2)nc(Nc2nc(-c3ccccc3)c(CC(=O)O)s2)n1 [Compound 30] | 1.2 | 2.3 | 3.4 | 1.2 | 1.2 | 1 | – |
| 0.8 | 0.7 | 0.8 | 0.3 | 1.0 | 1.0 | COc1ccc2nc(C(F)(F)F)c(C#N)c(NCCOc3ccc(Cl)cc3)c2c1 [Compound Z40] | 0.7 | 0.6 | 0.5 | 1 | 0.7 | 0.6 | – |
| 0.8 | 1.0 | 0.7 | 0.5 | 1.2 | 0.8 | COc1ccc2nc(C(F)(F)F)c(C#N)c(NCCc3ccc(Cl)cc3)c2c1 [Compound Z39] | 0.7 | 0.5 | 0.5 | 1.1 | 0.6 | 0.6 | – |
| 0.8 | 0.8 | 0.4 | 1.2 | 1.2 | 1.0 | COc1ccc(-c2cc3n(n2)C(N)=C(C#N)C(c2c[nH]c4ccccc24)(C(F)(F)F)N3)cc1OC (stereo not drawn) [Compound Z44] | 1.7 | 1.5 | 0.3 | 1.1 | 0.9 | 0.5 | – |
| 0.8 | 0.9 | 0.6 | 0.7 | 1.3 | 0.7 | COc1ccc(-c2cc3n(n2)C(N)=C(C#N)C(c2cccn2C)(C(F)(F)F)N3)cc1OC (stereo not drawn) [Compound Z50] | 1.6 | 2 | 0.8 | 1 | 0.8 | 0.6 | – |
| 0.9 | 0.9 | 0.6 | 1.8 | 1.5 | 1.1 | Cc1ccc(CCCNc2c(C#N)c(C(F)(F)F)nc3ccc(Oc4ccccc4)cc23)cc1 [Compound Z42] | 1.2 | 0.9 | 0.7 | 1.1 | 0.9 | 0.7 | – |
